Laboratory results from patent US20060079453A1, “Hla binding peptides and their uses” (priority 2002, published 2006).
Read-outs that look alike come from different tables or passages of the source. No end group written: not given here.

Experiments:
Test in all cases: biochemical
Type in all cases: binding
HLA-DR DRB1*0405 (DR4) = HLA-DR DRB1*0405 (DR4) (Homo sapiens, UniProt P01903+P01911, A100R/A169T/D86S/F76Y/I96L/K127E/L162R/M171V/N62H/P40V/Q125Y/R42H/S133A/S149N/S66Y/V115G/V209L/W38E)
HLA-DR DRB1*0301 (DR3) = HLA-DR DRB1*0301 (DR3) (Homo sapiens, UniProt P01903+P01911, A100K/A102G/A103R/A169T/F55Y/I96L/K41T/L162R/M171V/P40S/Q125H/Q178H/Q39Y/R42S/S66N/T106N/T262R/W38E/Y61H)
HLA-DR DRB1*0101 (DR1) = HLA-DR DRB1*0101 (DR1) (Homo sapiens, UniProt P01903+P01911, A100R/D57E/F55L/F60I/F76Y/I96L/L162R/M171V/P40L/Q125E/R42F/V115G/Y59C)
HLA-DR DRB1*1501 (DR15) = HLA-DR DRB1*1501 (DR15) (Homo sapiens, UniProt P01903+P01911)
HLA-DR DRB4*0101 (DR53) = HLA-DR DRB4*0101 (DR53) (Homo sapiens, UniProt P01903+P13762, G164S)
HLA-DR DRB1*0901 (DR9) = HLA-DR DRB1*0901 (DR9) (Homo sapiens, UniProt P01903+P01911, A100R/A103E/D57H/D86V/F55Y/F60I/F76Y/I96F/K127E/L162R/M171V/P40D/Q125H/Q99R/R33Q/R42F/S133A/S66N/T210M/V115G/W38K/Y107V/Y59G/Y89S); conditions: DRB1 *0901
HLA-DR DRB1*1101 (DR11) = HLA-DR DRB1*1101 (DR11) (Homo sapiens, UniProt P01903+P01911, A100R/A169T/A87E/I96F/K41T/L162R/M171V/P40S/Q125H/Q178H/Q39Y/Q99D/R42S/S66Y/T262R/V115G/W38E); conditions: DRB1 *1101
HLA-DR DRB1*0401 (DR4) = HLA-DR DRB1*0401 (DR4) (Homo sapiens, UniProt P01903+P01911, A100K/A169T/F76Y/I96L/K127E/L162R/M171V/N62H/P40V/Q125Y/R42H/S133A/S149N/S66Y/V115G/V209L/W38E)
HLA-DR DRB1*1302 (DR13) = HLA-DR DRB1*1302 (DR13) (Homo sapiens, UniProt P01903+P01911, A100E/A169T/K41T/L162R/M171V/P40S/Q125H/Q178H/Q39Y/Q99D/R42S/S66N/T262R/V115G/W38E/Y61H); conditions: DRBI *1302
HLA-DR DRB1*0802 (DR8) = HLA-DR DRB1*0802 (DR8) (Homo sapiens, UniProt P01903+P01911, A100R/A103L/A169T/F76Y/H45Y/I96F/K41T/L162R/M171V/P40S/Q125H/Q178H/Q39Y/Q99D/R218S/R42G/S66Y/V115G/W38E)
HLA-DR DRB1*0701 (DR7) = HLA-DR DRB1*0701 (DR7) (Homo sapiens, UniProt P01903+P01911, A100R/A102G/A103Q/D57E/D86V/E43K/F76Y/K127E/L162R/M171V/P40G/Q125H/Q99D/R33Q/R42Y/R54Q/S133A/S66F/T210M/V115G/Y107V/Y59L/Y89S)
HLA-DR DRB5*0101 (DR51) = HLA-DR DRB5*0101 (DR51) (Homo sapiens, UniProt P01903+Q30154); conditions: DRB5 *0101

Chain of HLA-DR DRB1*1101 (DR11) (P01903 26-254 limits assumed, other chains not shown): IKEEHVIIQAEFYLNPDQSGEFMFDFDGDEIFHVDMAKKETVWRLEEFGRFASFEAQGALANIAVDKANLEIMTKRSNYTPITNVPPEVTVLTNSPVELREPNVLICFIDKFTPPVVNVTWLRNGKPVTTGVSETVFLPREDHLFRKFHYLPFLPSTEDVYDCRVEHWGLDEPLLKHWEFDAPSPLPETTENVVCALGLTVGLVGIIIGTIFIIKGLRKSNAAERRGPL
Chain of HLA-DR DRB1*1302 (DR13) (P01903 26-254 limits assumed, other chains not shown): as above
Chain of HLA-DR DRB1*0301 (DR3) (P01903 26-254 limits assumed, other chains not shown): as above

Compound | IC50 (HLA-DR DRB1*0405 (DR4); DRB1 *0405) [µM] | IC50 (HLA-DR DRB1*0301 (DR3)) [µM] | IC50 (HLA-DR DRB1*0101 (DR1); DRB1 *0101) [µM] | IC50 (HLA-DR DRB1*1501 (DR15)) [µM] | IC50 (HLA-DR DRB4*0101 (DR53)) [µM] | IC50 (HLA-DR DRB1*0901 (DR9)) [µM] | IC50 (HLA-DR DRB1*1101 (DR11)) [µM] | IC50 (HLA-DR DRB1*0401 (DR4); DRB1 *0401) [µM] | IC50 (HLA-DR DRB1*1302 (DR13)) [µM] | IC50 (HLA-DR DRB1*0802 (DR8)) [µM] | IC50 (HLA-DR DRB1*0701 (DR7); DRB1 *0701) [µM] | IC50 (HLA-DR DRB1*1501 (DR15); DRBI *1501) [µM] | IC50 (HLA-DR DRB5*0101 (DR51)) [µM] | IC50 (HLA-DR DRB4*0101 (DR53); DRB4 *0101) [µM] | IC50 (HLA-DR DRB1*0405 (DR4); read-out: DRB1 *0405) [µM] | IC50 (HLA-DR DRB1*0301 (DR3); read-out: DRB1 *0301) [µM] | IC50 (HLA-DR DRB1*0802 (DR8); read-out: DRB1 *0802) [µM] | IC50 (HLA-DR DRB1*0101 (DR1); read-out: DRB1 *0101) [µM] | IC50 (HLA-DR DRB1*0401 (DR4); read-out: DRB1 *0401) [µM] | IC50 (HLA-DR DRB1*0701 (DR7); read-out: DRB1 *0701) [µM]
CC[C@H](C)[C@H](NC(=O)[C@H](Cc1ccc(O)cc1)NC(=O)[C@@H]1CCCN1C(=O)[C@H](CC(=O)O)NC(=O)[C@H](CCC(=O)O)NC(=O)[C@H](CC(C)C)NC(=O)[C@@H](NC(=O)[C@H](C)NC(=O)[C@@H](N)CCC(=O)O)C(C)C)C(=O)N[C@@H](CC(C)C)C(=O)N[C@@H](CC(C)C)C(=O)N[C@H](C(=O)N[C@@H](CO)C(=O)N[C@@H](CO)C(=O)N[C@@H](CCCCN)C(=O)O)C(C)C | 0.681 | 0.479 | 0.034 | > 50.8 | > 26.4 | 15 | 4.38 | 0.233 | > 10.3 | – | – | – | – | – | – | – | – | – | – | –
CSCC[C@H](NC(=O)[C@H](CCC(N)=O)NC(=O)[C@@H](NC(=O)[C@H](Cc1ccccc1)NC(=O)[C@H](C)NC(=O)[C@@H](NC(=O)CN)[C@@H](C)O)C(C)C)C(=O)N1CCC[C@H]1C(=O)N[C@@H](C)C(=O)N[C@@H](Cc1c[nH]cn1)C(=O)NCC(=O)N[C@@H](CC(C)C)C(=O)N[C@@H](Cc1ccccc1)C(=O)N1CCC[C@H]1C(=O)N[C@@H](Cc1c[nH]c2ccccc12)C(=O)O | 0.018 | 37.3 | 0.0016 | – | – | – | 0.017 | 0.0081 | 2.82 | 0.099 | 0.09 | 0.0012 | 0.043 | – | – | – | – | – | – | –
CC(C)C[C@H](NC(=O)[C@H](C)NC(=O)[C@H](Cc1ccccc1)NC(=O)[C@@H](N)[C@@H](C)O)C(=O)N[C@@H](Cc1c[nH]c2ccccc12)C(=O)N[C@@H](CCCNC(=N)N)C(=O)N[C@H](C(=O)N[C@@H](CO)C(=O)N[C@@H](C)C(=O)N[C@@H](CCC(=O)O)C(=O)N[C@@H](CCC(=O)O)C(=O)N[C@@H](Cc1ccc(O)cc1)C(=O)O)C(C)C | 0.072 | 88.3 | > 5.28 | – | – | 0.517 | 0.342 | 0.342 | > 2.57 | – | 0.927 | > 12.7 | 25.5 | > 6.61 | – | – | – | – | – | –
CC[C@H](C)[C@H](NC(=O)[C@@H](NC(=O)[C@H](CC(C)C)NC(=O)[C@H](CC(=O)O)NC(=O)[C@@H](NC(=O)[C@H](Cc1ccccc1)NC(=O)[C@H](C)NC(=O)[C@H](Cc1ccccc1)NC(=O)[C@H](CC(=O)O)NC(=O)[C@H](CC(C)C)NC(=O)[C@@H](N)C(C)C)[C@@H](C)O)[C@@H](C)O)C(=O)N[C@H](C(=O)N[C@@H](Cc1ccc(O)cc1)C(=O)N[C@@H](CCCNC(=N)N)C(=O)N[C@@H](CC(=O)O)C(=O)O)C(C)C | 0.721 | 0.03 | 0.354 | – | – | 0.252 | 7.47 | – | 3.1 | – | 0.23 | 0.645 | 14.8 | 11.3 | – | – | – | – | – | –
ALIYNYGLLYCFRKD | – | – | – | – | – | – | – | – | – | – | – | – | – | – | 0.551 | 9.82 | > 33.3 | 0.137 | – | –
CYSLYGTTLEQQYNK | 0.071 | – | 1.09 | – | – | – | > 14.7 | – | > 13.7 | 26 | > 9.96 | 5.06 | > 10.7 | 0.189 | – | – | – | – | – | –
ESTGMTPEKVPVSEVMGT | – | – | – | – | – | – | – | – | – | – | – | – | – | – | > 71.4 | > 50 | > 31.2 | – | > 47.4 | –
FAGIRRDGLLLRLVD | – | – | – | – | – | – | – | – | – | – | – | – | – | – | > 3.37 | 0.0036 | 7.65 | – | 7.09 | 41.1
GEALSTLVLNRLKVG | 14.8 | 11.8 | 0.719 | – | – | 20.2 | 0.079 | 3.05 | 0.029 | – | 3.19 | – | 0.046 | 1.02 | – | – | – | – | – | –
GIVEQTTTSITSLYQ | 0.818 | 107 | 6.35 | – | – | – | – | 0.121 | – | > 54.4 | 0.788 | – | – | – | – | – | – | – | – | –
LKLVYRDDFPYAVCR | 0.83 | 0.237 | 0.778 | – | – | 18.7 | 0.698 | 0.123 | 0.699 | – | 29 | 1.88 | 9.16 | 3.83 | – | – | – | – | – | –
LQQLFLSTLSFVCPW | 0.094 | 2.04 | 0.121 | – | – | 0.152 | 11.7 | – | – | – | 0.272 | – | 36.9 | 0.022 | – | – | – | – | – | –
LRTLQQMLLGTLQVV | 0.079 | > 3750 | 0.08 | – | – | 5.08 | 0.907 | 0.437 | 0.616 | – | 6.91 | 1.7 | > 46.6 | 0.088 | – | – | – | – | – | –
LRVVQQLLMGALTVT | 0.085 | 21.7 | 0.0057 | – | – | 0.204 | – | – | 0.0089 | – | 0.082 | 0.056 | – | 0.0077 | – | – | – | – | – | –
MKHILYISFYFILVN | 3.38 | – | 5.89 | – | – | – | – | 0.189 | – | 15.6 | – | – | > 9.52 | – | – | – | – | – | – | –
PVIKNSIKLRL | 278 | 0.198 | 1.55 | – | – | 2.85 | 2.77 | 34.2 | 0.077 | – | 4.09 | 2.58 | 1.04 | 0.198 | – | – | – | – | – | –
RTSIRASLTFNRGFK | 5.13 | 0.256 | – | – | – | – | 4.81 | 0.77 | – | 5.48 | 0.411 | – | – | 0.079 | – | – | – | – | – | –
RVIKNSIRLTL | 80.7 | 0.584 | 3.65 | – | – | 2.57 | 1.74 | 9.25 | 0.032 | – | 2.24 | 4.32 | 8.83 | – | – | – | – | – | – | –
VCLLFYSKVRKYRYY | 0.073 | 0.276 | 0.96 | – | – | 1.8 | 0.326 | – | – | – | 0.258 | 0.061 | – | 2.34 | – | – | – | – | – | –
WAGLLLDTRTLEVQS | 1.24 | 0.022 | 2.02 | – | – | – | 21 | 0.049 | 0.092 | > 61.2 | – | 3.47 | > 102 | – | – | – | – | – | – | –
WYRYSVYGTTLEKLT | 0.0085 | 26.6 | 0.163 | – | – | 0.284 | – | 0.249 | 0.805 | – | 0.107 | 0.421 | 0.062 | 1.04 | – | – | – | – | – | –
YGRILHYLKAKEDSH | 0.023 | 42.4 | 0.03 | – | – | – | – | 2.34 | – | 0.704 | 0.9 | – | – | – | – | – | – | – | – | –
